24 compounds from patent US8461328B2, “Tricyclic heterocyclic compounds, compositions and methods of use thereof” (Genentech, Inc., priority 2010, dated 2013) can be followed below.

Holding throughout (assay type): biochemical
One test deals with T1, JAK1 (Homo sapiens, UniProt P23458).
T1 construct: made in house; host or cells: SF9 insect cells (baculovirus)
In words: JAK1 inhibition (Table 4). Conditions: read-out: JAK1 Ki.

In another test the target is T2, JAK2 (Homo sapiens, UniProt O60674).
T2 construct: made in house; host or cells: SF9 insect cells (baculovirus)
The test is described as follows: JAK2 inhibition (Table 4). As to conditions: read-out: JAK2 Ki.

The target in a further test is T3, JAK3 (Homo sapiens, UniProt P52333).
T3 construct: made in house; host or cells: SF9 insect cells (baculovirus)
The test is described as follows: JAK3 inhibition (Table 4). Conditions: read-out: JAK3 Ki.

The next test has as its target T4, TYK2 (Homo sapiens, UniProt P29597).
T4 construct: made in house; host or cells: SF9 insect cells (baculovirus)
T4 sequence (P29597 873-1187): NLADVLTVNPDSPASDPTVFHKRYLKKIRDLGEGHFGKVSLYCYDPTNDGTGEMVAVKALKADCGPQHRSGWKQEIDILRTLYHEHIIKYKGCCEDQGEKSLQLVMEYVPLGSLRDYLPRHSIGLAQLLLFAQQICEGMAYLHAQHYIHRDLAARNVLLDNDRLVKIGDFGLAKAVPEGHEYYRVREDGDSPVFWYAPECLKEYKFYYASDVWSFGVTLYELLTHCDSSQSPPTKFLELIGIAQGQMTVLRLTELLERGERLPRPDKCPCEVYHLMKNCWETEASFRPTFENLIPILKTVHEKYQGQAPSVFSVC
In words: TYK2 inhibition (Table 4).

T1 sequence (P23458 852-1154): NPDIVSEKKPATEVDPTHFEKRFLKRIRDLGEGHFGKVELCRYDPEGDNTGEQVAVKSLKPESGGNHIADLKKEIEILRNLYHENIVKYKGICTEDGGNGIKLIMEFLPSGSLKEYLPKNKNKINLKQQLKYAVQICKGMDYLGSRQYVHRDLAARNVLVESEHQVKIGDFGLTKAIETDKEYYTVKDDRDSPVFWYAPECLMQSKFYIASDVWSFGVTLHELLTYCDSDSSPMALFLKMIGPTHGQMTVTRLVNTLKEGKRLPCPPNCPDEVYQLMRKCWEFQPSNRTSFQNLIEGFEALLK
T3 sequence (P52333 783-1124): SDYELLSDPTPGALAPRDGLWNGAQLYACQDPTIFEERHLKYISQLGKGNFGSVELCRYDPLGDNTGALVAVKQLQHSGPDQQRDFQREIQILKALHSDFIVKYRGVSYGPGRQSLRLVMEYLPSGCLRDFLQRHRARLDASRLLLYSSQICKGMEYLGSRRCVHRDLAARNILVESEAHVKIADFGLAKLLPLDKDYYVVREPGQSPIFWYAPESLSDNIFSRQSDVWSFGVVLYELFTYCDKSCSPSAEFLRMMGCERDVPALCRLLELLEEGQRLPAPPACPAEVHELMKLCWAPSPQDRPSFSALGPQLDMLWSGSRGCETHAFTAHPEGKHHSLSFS
T2 sequence (O60674 812-1132): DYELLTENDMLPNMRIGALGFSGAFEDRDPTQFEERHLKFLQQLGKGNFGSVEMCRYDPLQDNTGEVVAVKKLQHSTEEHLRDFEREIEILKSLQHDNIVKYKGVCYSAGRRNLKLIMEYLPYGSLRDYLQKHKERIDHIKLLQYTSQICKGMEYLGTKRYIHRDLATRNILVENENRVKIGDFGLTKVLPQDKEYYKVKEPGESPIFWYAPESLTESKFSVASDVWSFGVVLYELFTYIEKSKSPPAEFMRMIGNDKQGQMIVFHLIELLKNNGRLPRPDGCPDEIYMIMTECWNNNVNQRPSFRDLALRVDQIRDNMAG

`Cc1cnn(CCc2nc3cnc4[nH]ccc4c3n2C2CCN(CCC#N)CC2)c1` [Example 413, 3-(4-{2-[2-(4-Methyl-pyrazol-1-yl)-ethyl]-6H-1,3,5,6-tetraaza-as-indacen-1-yl}-piperidin-1-yl)-propionitrile]: the Ki at JAK1 was determined as 21.1 nM; at JAK2 it was 59.8 nM; at JAK3, 224 nM; at TYK2, 181 nM.
On the same counts, the results for `CCc1nc2cnc3[nH]ccc3c2n1C1CCN(C(C)CC#N)CC1` (stereo not drawn) [Example 123, 3-[4-(2-Ethyl-6H-1,2,3,5,6-tetraaza-as-indacen-1-yl)-piperidin-1-yl]-butyronitrile] are 3.55 nM, 7.14 nM, 23.6 nM and 31 nM.
On the same counts, the results for `c1cncc(CN2CCC(n3nnc4cnc5[nH]ccc5c43)CC2)c1` [Example 282, 1-(1-Pyridin-3-ylmethyl-piperidin4-yl)-1,6-dihydro-1,2,3,5,6-pentaaza-as-indacene] are 7.53 nM, 12.1 nM, 48.1 nM and 260 nM.
On the same counts, the results for `CC1(C(=O)N2CCC(n3cnc4cnc5[nH]ccc5c43)CC2)CCCN1` (racemic) [Example 251] are 216 nM, 269 nM, 2040 nM and 3450 nM.
As for `OCCc1nc2cnc3[nH]ccc3c2n1[C@@H]1CCCOC1` [Example 864, (R)-2-[1-(Tetrahydro-pyran-3-yl)-1,6-dihydro-1,3,5,6-tetraaza-as-indacen-2-yl]-ethanol], the Ki at JAK1 was 71.7 nM; on JAK2, 235 nM; at JAK3, 305 nM; at TYK2, 286 nM.
With `FC(F)(F)c1nc2cnc3[nH]ccc3c2n1[C@@H]1CCCNC1` [Example 301, 1-(R)-Piperidin-3-yl-2-trifluoromethyl-1,6-dihydro-1,3,5,6-tetraaza-as-indacene], the inhibition constant (Ki) at JAK1 was 373 nM; at JAK2, 1300 nM; on JAK3, 1450 nM; at TYK2, 2160 nM.
On the same counts, the results for `CCOC(=O)N1CC[C@H](n2c([C@@H](C)O)nc3cnc4[nH]ccc4c32)C1` [Example 931, (S)-3-[2-((R)-1-Hydroxy-ethyl)-6H-1,3,5,6-tetraaza-as-indacen-1-yl]-pyrrolidine-1-carboxylic acid ethyl ester] are 65.1 nM, 1860 nM, 904 nM and 232 nM.
As to `C[C@@H](O)c1nc2cnc3[nH]ccc3c2n1[C@H]1CCNC1` [Example 926, (R)-1-((S)-1-Pyrrolidin-3-yl-1,6-dihydro-1,3,5,6-tetraaza-as-indacen-2-yl)-ethanol], the Ki was found to be 35.2 nM at JAK1, 2470 nM on JAK2, 1150 nM on JAK3 and 1600 nM at TYK2.
On the same counts, the results for `CCN1CCC(n2c(CCNS(C)(=O)=O)nc3cnc4[nH]ccc4c32)C(F)(F)C1` (single isomer, unassigned) [Example 806, N-{2-[1-(1-Ethyl-3,3-difluoro-piperidin-4-yl)-1,6-dihydro-1,3,5,6-tetraaza-as-indacen-2-yl]-ethyl}-methanesulfonamide] are 3.41 nM, 21.2 nM, 17.9 nM and 179 nM.
On the same counts, the results for `OC1(C2CC2)CCC(n2cnc3cnc4[nH]ccc4c32)CC1` (stereo not drawn) [Example 996, Cis-1-Cyclopropyl-4-(6H-1,3,5,6-tetraaza-as-indacen-1-yl)-cyclohexanol] are 2.01 nM, 3.85 nM, 50.8 nM and 9.23 nM.
Turning to `O=C1CCCN1c1ccc(S(=O)(=O)N2CCC(n3cnc4cnc5[nH]ccc5c43)CC2)cc1` [Example 445, 1-{4-[4-(6H-1,3,5,6-Tetraaza-as-indacen-1-yl)-piperidine-1-sulfonyl]-phenyl}-pyrrolidin-2-one], the Ki amounted to 11.9 nM on JAK1, 39.2 nM on JAK2, 84 nM on JAK3 and 96.9 nM on TYK2.
As for `C[C@@H](O)c1nc2cnc3[nH]ccc3c2n1[C@@H]1CCN(S(C)(=O)=O)C1` [Example 686, (R)-1-[1-((R)-1-Methanesulfonyl-pyrrolidin-3-yl)-1,6-dihydro-1,2,3,5,6-tetraaza-as-indacen-2-yl]-ethanol], the inhibitory constant (Ki) was found to be 47.4 nM on JAK1, 27 nM on JAK2, 15.3 nM on JAK3 and 4.17 nM on TYK2.
On the same counts, the results for `C[C@@H](O)c1nc2cnc3[nH]ccc3c2n1C1CC2CCC1C2` (stereo partly drawn) [Example 943, (R)-1-(1-Bicyclo[2.2.1]hept-2-yl-1,6-dihydro-1,3,5,6-tetraaza-as-indacen-2-yl)-ethanol] are 0.57 nM, 8.22 nM, 18.7 nM and 2.92 nM.
On the same counts, the results for `CC(O)c1nc2cnc3[nH]ccc3c2n1C1CCCN(CCF)C1` [Example 664, (R)-1-{1-[(R)-1-(2-Fluoro-ethyl)-piperidin-3-yl]-1,6-dihydro-1,2,3,5,6-tetraaza-as-indacen-2-yl}-ethanol] are 63.8 nM, 99 nM, 112 nM and 58.5 nM.
On the same counts, the results for `Cc1nc2cnc3[nH]ccc3c2n1C1CCCCC1C` (mixture of isomers) [Example 516, 2-Methyl-1-(2-methyl-cyclohexyl)-1,6-dihydro-1,3,5,6-tetraaza-as-indacene] are 2.17 nM, 2.78 nM, 5.35 nM and 7.58 nM.
Regarding `O=C(Cc1nc2cnc3[nH]ccc3c2n1C1CCN(Cc2ccccc2)CC1)N1CCCC1` [Example 100, 2-[1-(1-Benzyl-piperidin-4-yl)-1,6-dihydro-1,3,5,6-tetraaza-as-indacen-2-yl]-1-pyrrolidin-1-yl-ethanone], the Ki on JAK1 was determined as 22.1 nM; at JAK2, 99.2 nM; at JAK3, 16.9 nM; at TYK2, 2100 nM.
On the same counts, the results for `N#CC1CCN([C@H]2CC[C@H](n3c(CO)nc4cnc5[nH]ccc5c43)CC2)CC1` [Example 613, Trans 1-[4-(2-hydroxymethyl-6H-1,2,3,5,6-tetraaza-as-indacen-1-yl)-cyclohexyl]-piperidine-4-carbonitrile] are 2.58 nM, 15.1 nM, 318 nM and 14.5 nM.
On the same counts, the results for `C[C@@H](O)c1nc2cnc3[nH]ccc3c2n1[C@@H]1CCCOC1` [Example 456, (R)-1-[(R)-1-(Tetrahydro-pyran-3-yl)-1,6-dihydro-1,2,3,5,6-tetraaza-as-indacen-2-yl]-ethanol] are 70.1 nM, 354 nM, 346 nM and 176 nM.
On the same counts, the results for `NC1CCCC(n2cnc3cnc4[nH]ccc4c32)C1` (single isomer, unassigned) [Example 367, 3-(6H-1,3,5,6-Tetraaza-as-indacen-1-yl)-cyclohexylamine] are 42.2 nM, 90.4 nM, 453 nM and 157 nM.
For `CCC(=O)N1CCC[C@@H](n2c([C@@H](C)O)nc3cnc4[nH]ccc4c32)C1` [Example 795, 1-{(R)-3-[2-((R)-1-Hydroxy-ethyl)-6H-1,3,5,6-tetraaza-as-indacen-1-yl]-piperidin-1-yl}-propan-1-one], the Ki on JAK1 was 221 nM; at JAK2, 876 nM; on JAK3, 1370 nM; on TYK2, 698 nM.
On the same counts, the results for `CCCS(=O)(=O)N1CCC(n2c(CC(N)=O)nc3cnc4[nH]ccc4c32)CC1` [Example 117, 2-{1-[1-(Propane-1-sulfonyl)-piperidin-4-yl]-1,6-dihydro-1,2,3,5,6-tetraaza-as-indacen-2-yl}-acetamide] are 131 nM, 781 nM, 746 nM and 1530 nM.
In the case of `CN1CCOCC1C(=O)N1CCC(n2cnc3cnc4[nH]ccc4c32)CC1` (single isomer, unassigned) [Example 197, (4-Methyl-morpholin-3-yl)-[4-(6H-1,2,3,5,6-tetraaza-as-indacen-1-yl)-piperidin-1-yl]-methanone], the Ki at JAK1 amounted to 32.5 nM; on JAK2 it was 202 nM; at JAK3, 3240 nM; at TYK2, 667 nM.
With `O=C(C1CCC1)N1CCC[C@@H](n2cnc3cnc4[nH]ccc4c32)C1` [Example 315, Cyclobutyl-[(R)-3-(6H-1,3,5,6-tetraaza-as-indacen-1-yl)-piperidin1-yl]-methanone], the Ki amounted to 5.7 nM on JAK1, 6.28 nM at JAK2, 41.3 nM at JAK3 and 29.2 nM on TYK2.
`Cc1noc(CN2CCC(n3c(C(C)O)nc4cnc5[nH]ccc5c43)C(F)C2)n1` (stereo not drawn) [Example 912, 1-{1-[3-Fluoro-1-(3-methyl-[1,2,4]oxadiazol-5-ylmethyl)-piperidin-4-yl]-1,6-dihydro-1,3,5,6-tetraaza-as-indacen-2-yl}-ethanol]: the inhibition constant Ki on JAK1 turned out to be 3.37 nM; at JAK2 it was 42.8 nM; at JAK3, 7.83 nM; on TYK2, 176 nM.
